Experimental data published in patent publication US20240424113A1, “CONJUGATES COMPRISING ANTIFUNGALS AND HEAT SHOCK PROTEIN 90 (HSP90) INHIBITORS AND METHODS OF USE THEREOF” (Bright Angel Therapeutics Inc., priority 2021, published 2024).
In brackets after ≈: the same amount, converted by molar mass.

Columns and labels:
[1] = target: Hsp90 Nuclear Binding Domain (NBD) (Aspergillus fumigatus, UniProt P40292); test: Surface Plasmon Resonance (SPR) binding, A. fumigatus Hsp90 NBD; conditions: biotinylated Hsp90 NBD on streptavidin chip, 25° C., 1:1 binding model; NB undefined
Method: (§1) Surface Plasmon Resonance (SPR) Experiments. SPR experiments were performed on a Biacore S200 instrument at 25° C. Biotinylated Hsp90 Nuclear Binding Domain (NBD) was diluted to 40 μg/mL and immobilized on a streptavidin chip (Sensor Chip SA, GE Healthcare) at a density of 2000-2500 response units (RU) on the biosensor surface.
(§2) Recombinant Hsp90 NBDs were expressed and purified as previously described (Whitesell et al., Nat Commun 10, 402 (2019)) with the following modification; Hsp90 NBD expression constructs were modified to encode a C-terminal AviTag for site-specific on-column biotinylation with a BirA biotin-ligase kit (Avidity LLC; BirA-500). Stock protein solutions in 50% glycerol were stored at −20° C. until dilution into relevant buffers. Binding experiments were done in HBS-P (0.01 M HEPES, pH 7.4, 0.15 M NaCl, 0.005% v/v surfactant P20, GE Healthcare) with 2% DMSO at flow rate of 40 μL/min. Test compounds (dilution series) were injected with a 60 s association time and 600 s dissociation time. Resulting sensorgrams were analyzed with a fit to a 1:1 binding model, using BIA evaluation software.

[2] = target: Hsp90 Nuclear Binding Domain (NBD) (Candida albicans (strain SC5314 / ATCC MYA-2876) (Yeast), UniProt P46598); test: Surface Plasmon Resonance (SPR) binding, C. albicans Hsp90 NBD; conditions: biotinylated Hsp90 NBD on streptavidin chip, 25° C., 1:1 binding model
Method: as §1, §2

CaCl2 = test: Antifungal sensitivity testing (broth microdilution MIC); type: cell-based; conditions: Table 4; 96-well broth microdilution
Method: Antifungal Sensitivity Testing. Minimum inhibitory concentrations (MICs) were determined in flat bottom, 96-well plate format using a modified broth microdilution protocol as previously described (Singh et al., PLoS Pathog. 5, e1000532 (2009); LaFayette et al., PLoS Pathog. 6, 79-80 (2010)). Compounds were formulated in dimethyl sulfoxide (DMSO, Sigma-Aldrich Co.); fluconazole was dissolved in sterile ddH2O. Each compound was tested in duplicate in at least two independent experiments. To test for fungicidal activity, cultures from MIC plates were spotted on YPD agar plates using a spotter (Frogger, V&P Scientific, Inc.). Plates were photographed after 24 h of incubation at 30° C.

Hsp90 Nuclear Binding Domain (NBD) (Candida albicans (strain SC5314 / ATCC MYA-2876) (Yeast), UniProt P46598), sequence (P46598 1-218 limits assumed): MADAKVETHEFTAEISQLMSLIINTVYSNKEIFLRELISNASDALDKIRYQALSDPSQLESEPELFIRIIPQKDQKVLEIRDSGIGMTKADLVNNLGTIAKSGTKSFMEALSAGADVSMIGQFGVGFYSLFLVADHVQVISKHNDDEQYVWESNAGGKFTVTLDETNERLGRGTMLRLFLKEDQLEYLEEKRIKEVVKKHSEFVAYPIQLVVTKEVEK
Hsp90 Nuclear Binding Domain (NBD) (Aspergillus fumigatus, UniProt P40292), sequence (P40292 whole entry, looked up, the tested form may be a part): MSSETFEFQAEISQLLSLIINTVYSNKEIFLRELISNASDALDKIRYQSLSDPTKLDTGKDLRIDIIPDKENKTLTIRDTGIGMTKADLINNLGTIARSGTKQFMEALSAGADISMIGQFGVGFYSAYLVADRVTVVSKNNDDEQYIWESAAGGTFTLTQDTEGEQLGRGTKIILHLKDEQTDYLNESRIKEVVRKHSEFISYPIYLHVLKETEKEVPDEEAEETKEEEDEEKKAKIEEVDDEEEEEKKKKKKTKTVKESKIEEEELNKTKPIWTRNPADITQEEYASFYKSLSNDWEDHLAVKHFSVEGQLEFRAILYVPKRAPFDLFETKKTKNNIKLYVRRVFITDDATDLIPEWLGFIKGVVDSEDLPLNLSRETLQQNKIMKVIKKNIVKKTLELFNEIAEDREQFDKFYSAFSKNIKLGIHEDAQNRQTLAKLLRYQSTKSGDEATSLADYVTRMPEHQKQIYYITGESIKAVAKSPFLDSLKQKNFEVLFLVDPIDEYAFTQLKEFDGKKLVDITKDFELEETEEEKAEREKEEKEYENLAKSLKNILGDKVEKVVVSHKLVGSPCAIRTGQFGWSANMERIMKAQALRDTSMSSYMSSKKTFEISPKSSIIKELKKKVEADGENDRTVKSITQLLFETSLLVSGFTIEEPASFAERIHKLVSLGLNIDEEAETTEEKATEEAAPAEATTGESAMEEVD

## Nc1nc2sc(-c3cn(C4CCN(CC(O)(Cn5cncn5)c5ccc(F)cc5F)CC4)nn3)cc2n(-c2ccc3c(c2)N(c2ccccc2)CCO3)c1=O (stereo not shown) [Compound I-51, 3-amino-6-(1-(1-(2-(2,4-difluorophenyl)-2-hydroxy-3-(1H-1,2,4-triazol-1-yl)propyl)piperidin-4-yl)-1H-1,2,3-triazol-4-yl)-1-(4-phenyl-3,4-dihydro-2H-benzo[b][1,4]oxazin-6-yl)thieno[2,3-b]pyrazin-2(1H)-one]
[1]
  Kd: 14.6 nM
[2]
  Kd: 3 nM
CaCl2
  MIC50: 1 µM (≈ 0.764 µg/mL)

## Nc1nc2sc(CNC3CCN(C[C@](O)(Cn4cncn4)c4ccc(F)cc4F)CC3)cc2n(-c2ccc3c(c2)N(c2ccccc2)CCO3)c1=O [Compound I-63, (S)-3-amino-6-(((1-(2-(2,4-difluorophenyl)-2-hydroxy-3-(1H-1,2,4-triazol-1-yl)propyl)piperidin-4-yl)amino)methyl)-1-(4-phenyl-3,4-dihydro-2H-benzo[b][1,4]oxazin-6-yl)thieno[2,3-b]pyrazin-2(1H)-one]
[1]
  Kd: 591 nM
[2]
  Kd: 377 nM
CaCl2
  MIC50: 9 µM (≈ 6.53 µg/mL)

## Nc1nc2sc(C(=O)NC3CCCN(CC(O)(Cn4cncn4)c4ccc(F)cc4F)CC3)cc2n(-c2ccc3c(c2)N(c2ccccc2)CCO3)c1=O (stereo not shown) [Compound I-50, 3-amino-N-(1-(2-(2,4-difluorophenyl)-2-hydroxy-3-(1H-1,2,4-triazol-1-yl)propyl)azepan-4-yl)-2-oxo-1-(4-phenyl-3,4-dihydro-2H-benzo[b][1,4]oxazin-6-yl)-1,2-dihydrothieno[2,3-b]pyrazine-6-carboxamide]
[2]
  Kd: 42.7 nM
CaCl2
  MIC50: 3.25 µM (≈ 2.45 µg/mL)

## Nc1nc2sc(C(=O)Nc3ccc(N4CCN(CC(O)(Cn5cncn5)c5ccc(F)cc5F)CC4)cc3)cc2n(-c2ccc3c(c2)N(c2ccccc2)CCO3)c1=O (stereo not shown) [Compound I-8, 3-amino-N-(4-(4-(2-(2,4-difluorophenyl)-2-hydroxy-3-(1H-1,2,4-triazol-1-yl)propyl)piperazin-1-yl)phenyl)-2-oxo-1-(4-phenyl-3,4-dihydro-2H-benzo[b][1,4]oxazin-6-yl)-1,2-dihydrothieno[2,3-b]pyrazine-6-carboxamide]
CaCl2
  MIC50: 0.75 µM (≈ 0.613 µg/mL)

## Nc1nc2sc(CNC3[C@@H]4CC[C@H]3CN(CC(O)(Cn3cncn3)c3ccc(F)cc3F)C4)cc2n(-c2ccc3c(c2)N(c2ccccc2)CCO3)c1=O (stereo partly drawn) [Compound I-116, 3-amino-6-((((1R,5S)-3-(2-(2,4-difluorophenyl)-2-hydroxy-3-(1H-1,2,4-triazol-1-yl)propyl)-3-azabicyclo[3.2.1]octan-8-yl)amino)methyl)-1-(4-phenyl-3,4-dihydro-2H-benzo[b][1,4]oxazin-6-yl)thieno[2,3-b]pyrazin-2(1H)-one]
[2]
  Kd: 1350 nM
CaCl2
  MIC50: 3 µM (≈ 2.26 µg/mL)

## Nc1nc2sc(C(=O)Nc3ccc(COC4CCN(CC(O)(Cn5cncn5)c5ccc(F)cc5F)CC4)cc3)cc2n(-c2ccc3c(c2)N(c2ccccc2)CCO3)c1=O (stereo not shown) [Compound I-46, 3-amino-N-(4-(((1-(2-(2,4-difluorophenyl)-2-hydroxy-3-(1H-1,2,4-triazol-1-yl)propyl)piperidin-4-yl)oxy)methyl)phenyl)-2-oxo-1-(4-phenyl-3,4-dihydro-2H-benzo[b][1,4]oxazin-6-yl)-1,2-dihydrothieno[2,3-b]pyrazine-6-carboxamide]
CaCl2
  MIC50: 0.85 µM (≈ 0.719 µg/mL)

## CN(Cc1cc2c(nc(N)c(=O)n2-c2ccc3c(c2)N(c2ccccc2)CCO3)s1)C1CCN(CC(O)(Cn2cncn2)c2ccc(F)cc2F)CC1 (stereo not shown) [Compound I-119, 3-amino-6-(((1-(2-(2,4-difluorophenyl)-2-hydroxy-3-(1H-1,2,4-triazol-1-yl)propyl)piperidin-4-yl)(methyl)amino)methyl)-1-(4-phenyl-3,4-dihydro-2H-benzo[b][1,4]oxazin-6-yl)thieno[2,3-b]pyrazin-2(1H)-one]
CaCl2
  MIC50: 6.5 µM (≈ 4.81 µg/mL)
